Data set [1] concerns p53 protein. The data set is described as follows: p53 protein accumulation by western blotting. The format is cell-based, human. How it is done: U87MG were treated with DMSO (control), EB148 or EB54 for 16 h. […] […] Glyceraldehyde-3-phosphate dehydrogenase (GAPDH) was the loading control ([…], Sigma Aldrich, Milan, Italy, 1:5000). The primary antibodies were detected using the appropriate peroxidase-conjugated secondary antibodies, which were then detected using a chemioluminescent substrate (ECL, Perkin Elmer). Densitometric analysis of the immunoreactive bands was performed using Image J Software.
A general note: Immunoblotting shows a protein as a band on a membrane.

In data set [2] the test system is mitochondria isolated from U87MG cells. The data set is described as follows: Mitochondrial membrane potential (Δψm) dissipation, JC-1 protocol. The format is biochemical, human. Conditions: 1 μM, 20 min, isolated mitochondria. How it is done:
The Δψm dissipation was assessed using the fluorescent dye 5,59,6,69-tetrachloro1,19,3,39-tetraethylbenzimidazolylcarbocyanine iodide (JC-1). Mitochondria were isolated from U87MG cells using the Mitochondria Isolation Kit (Sigma Aldrich, Milan, Italy) following manufacturer's instructions.
Isolated mitochondria were treated for 20 min with EB54 or EB148 (1 μM). In wash-out experiments, mitochondria were then centrifuged at 11.000 × g for 5 min, washed with fresh saline and suspended in JC-1 buffer not containing the drugs. At the end of treatments, 5 μg of control and treated mitochondria were added to the JC-1 dye. The fluorescence (relative fluorescence units, RFU) of the sample was read in a spectrofluorimeter using a time-drive method (one acquisition each 10 sec, for 10 min), where the excitation wavelength was set to 490 nm and emission wavelength at 590 nm. […] Consequently, mitochondrial depolarization is indicated by a decrease in the orange-red fluorescence intensity.

For data set [3], the system named is U87MG cells. The data set is described as follows: U87MG cell viability, trypan blue exclusion test. The format is cell-based, human. Conditions: 72 h, maximal effect at 100 μM. The protocol:
The effects of compound treatment on U87MG cell viability and proliferation were evaluated by Trypan blue exclusion assays and MTS assay, respectively. U87MG cells were treated with EB148 or EB54 for 72 h. Following treatment, harvested cells were mixed with an equal volume of 0.4% trypan blue dye. For quantization of cell viability, blue and bright cells were counted, and viability was calculated as the number of living (bright) and dead (blue) cells in each well. To establish the effect of MDM2 inhibitors on cell proliferation, cells were treated for 72 h with different concentrations of each compound (0.1 nM–100 μM) for 72 h, and then MTS assay was performed according to the manufacturer's instructions.

Data set [4] has as its system ERK1/2. As to the kind of experiment: ERK1/2 phosphorylation ELISA in U87MG cells. The format is cell-based, human. How it is done:
Figure 10 ERK phosphorylation and levels of ERK/MDM2 complex in U87MG cells A. U87MG cells were treated with DMSO (control), 1 μΜ EB148 or 1 μΜ EB54 for the indicated times; in some experiments, after 2 h of treatment the medium was replaced by fresh medium not containing drugs for an additional 2 h. At the end of the treatment period the levels of ERK 1/2 phosphorylation were evaluated using ELISA kits, as described in the Methods section. The data are expressed as the percentage of phosphorylated ERK1/2 versus untreated cells (control), which were set at 100%. Data are the mean values ± SEM of three independent experiments performed in triplicate. Analysis of significant differences in mean ERK/MDM2 complex levels was performed using one-way ANOVA with a Bonferroni post-test: * p< 0.05, ** p< 0.01, *** p<0.001 vs. control. […] C. U87MG cells were treated with DMSO (control), 1 μΜ EB148 or 1 μΜ EB54 for the indicated times; in some experiments, after 8 h of treatment, the medium was replaced by fresh medium not containing drugs for an additional 24 h. At the end of the treatment period, U87MG cells were collected and suspended in lysis buffer. Equal amounts of cell lysates were captured on wells pre-coated with MDM2 antibody. After extensive washing, the levels of the ERK/MDM2 complex were quantified using an antibody specific for ERKs, and subsequently an HRP-conjugated antibody and a TMB substrate kit. Data are expressed as percentage of control set to 100%, and represent the mean ± SEM of three independent experiments. The significance of the differences was determined with a one-way ANOVA with Bonferroni post-test: * p<0.05, ** p<0.01, *** p<0.001 vs. control.
(In general: ELISA stands for enzyme-linked immunosorbent assay.)

In data set [5] the target is T1, human TSPO (Homo sapiens, UniProt P30536).
T1 construct: aliquots of U87MG cell membranes (20 μg of proteins) were incubated with [^3H]PK 11195 (1.5 nM); endogenous in cells; host or cells: U87MG human glioblastoma cell membranes
As to the kind of experiment: TSPO association/dissociation and competition kinetics with [3H]PK11195. The format is binding. The text has this: Association and dissociation rate constants for [^3H]
For competition kinetics, the [^3H]

For data set [6], the system named is p53 target genes (p53, p21 and MDM2). The data set is described as follows: Relative mRNA quantification of p53 target genes by real-time RT-PCR. The format is cell-based, human. How it is done:
In brief, total RNA was extracted from control cells as well as from cells treated with EB148 or EB54 (1 μM) for different times (8 h, 16 h or 24 h), using RneasyH Mini Kit (Qiagen, Hilden, Germany), according to manufacturer's instructions. cDNA synthesis was performed with 500 ng of RNA using i-Script cDNA synthesis kit (BioRad, Hercules, USA). RT-PCR reactions consisted of 25 μl FluocycleH II SYBRH (Euroclone, Milano, Italy), 1.5 μl of both 10 μM forward and reverse primers (listed in [56]), 3 μl cDNA, and 19 μL of H2O. […] PCR specificity was verified by both the melting curve analysis and gel electrophoresis.
On the technique in general: Real-time PCR tracks product formation cycle by cycle.

Data set [7] concerns U87MG cells. As to the kind of experiment: U87MG cell proliferation, MTS assay. The format is cell-based, human. Conditions: U87MG, 72 h treatment, then drug-free medium 72 h. How it is done:
The effects of compound treatment on U87MG cell viability and proliferation were evaluated by Trypan blue exclusion assays and MTS assay, respectively. […] For quantization of cell viability, blue and bright cells were counted, and viability was calculated as the number of living (bright) and dead (blue) cells in each well.
The absorbance of formazan at 490 nm was measured in a colorimetric assay with an automated plate reader (Victor Wallac 2, Perkin Elmer). For wash-out experiments, U87MG cells were treated with EB148 or EB54 (100 nM-10 μM) for 72 h. Following incubation, medium-containing drugs was replaced by fresh medium, and cells were allowed to growth for the indicated days. At the end of treatments, cell proliferation was measured by MTS assay. The results were calculated by subtracting the mean background from the values obtained from each evaluation and were expressed as the percentage of the control (untreated cells). Sigmoid dose-response curve was generated, from which the IC50 values were derived.

In data set [8] the test system is mesenchymal Stem Cells (MSCs) isolated from human bone marrow. As to the kind of experiment: Toxicity in non-tumour cells, MSC proliferation by MTS assay. It is filed as cell-based. Conditions: 72 h; EB54 at 10 μM; EB148 up to the highest concentration tested. How it is done: […]. At the end of treatments, cell proliferation was measured by MTS assay.
In data set [9] the test system is U87MG cells. The data set is described as follows: Annexin V and 7-AAD staining (apoptosis). The format is cell-based, human. Conditions: 1 μM, 24 h. How it is done: Dual staining with Annexin V coniugated to fluorescein-isothiocyanate (FITC) and 7-amino-actinomysin (7-AAD) was performed using the commercially available kit (Muse Annexin V and Dead Cell Kit; Merck KGaA, Darmstadt, Germany).
U87MG cells were treated with DMSO (control), EB54 or EB148 (1 μM) for 24 h. Both floating and adherent cells were collected, and incubated for 10 min at room temperature with the fluorescent reagent. After incubation, the percentages of living, apoptotic and dead cells were acquired and analyzed by MuseTM Cell Analyzer in accordance to the manufacture's guidelines.

Data set [10] deals with T1, human TSPO. The data set is described as follows: Equilibrium [3H]PK11195 radioligand binding assay in U87MG cell membranes. How it is done:
Equilibrium radioligand binding assays were performed essentially as previously described. […] Samples were rapidly filtered under vacuum through GF/C glass fiber filters.

Each structure is given as a SMILES string.

T1 sequence (P30536 whole entry): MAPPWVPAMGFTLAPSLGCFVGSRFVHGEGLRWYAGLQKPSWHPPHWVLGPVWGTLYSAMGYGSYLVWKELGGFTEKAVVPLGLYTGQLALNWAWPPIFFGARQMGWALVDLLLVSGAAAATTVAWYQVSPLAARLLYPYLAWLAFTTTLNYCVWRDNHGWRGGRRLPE

For orientation: koff means a measure of how fast the partners let go of each other. Read a low koff as slow dissociation. Broadly, the kon is a measure of how fast the partners come together. A low value points to slower complex formation. By Kd is commonly meant a measure of binding affinity in units of concentration. By Ki is commonly meant the dissociation constant of the complex between target and ligand, obtained from inhibition or displacement. Take `CCOC(=O)[C@@H](Cc1ccccc1)NC(=O)[C@H](CC(C)C)NC(=O)C(=O)c1c(-c2ccccc2)[nH]c2ccccc12` [EB54]: in data set [1] (1 μM for 16 h, then wash-out of 16 h), the “p53 protein levels after wash-out” value is “control levels”. Further, the p53 protein levels entry in data set [1] (1 μM, 16 h) was “slight but significant increase”. For the same molecule, the “JC-1 accumulation (Δψm) compared to control untreated mitochondria” value in [2] is on record as “significant reduction”. For the same molecule, the “total number of living cells” value in [3] is “reduced the total number of living cells”. Besides, in data set [4] (1 μM, up to 8 h), the ERK1/2 phosphorylation entry was “did not induce any significant ERK1/2 stimulation”. For the same molecule, the “effect of blocking p53 on compound-mediated ERK1/2 activation” value in [4] (pifithrin-β 1 μM 30 min, then compound 1 μM 2 h) is “did not significantly affect”. In data set [5], this molecule had a koff of 0.000482 s⁻¹ and a kon of 3600 M⁻¹ s⁻¹. Besides, the dissociation constant (Kd) in [5] (calculated as ratio of estimated koff and kon) is 134 nM. The “mRNA expression level of p21, p53 and MDM2” value in [6] (1 μM, 8 and 16 h) is given as “significant increase”. Further, in data set [6] (1 μM, after 24 h), the “mRNA expression of p21, p53 and MDM2” value is given as “significantly lower than controls”. The “levels of p53 target gene transcripts after wash-out” value in data set [6] (treated for 2 h (text; legend: 16 h), washed out for 16 h in drug-free medium) is reported as “down-regulated”. Besides, in data set [7], the “cell proliferation 72 h after cell wash-out” value is listed as “significant recovery in proliferative activity”. Besides, the MSC viability/proliferation result in data set [8] is “significantly decreased”. Besides, the “phosphatidylserine externalization (early and late apoptosis)” value in [9] was “significant phoshpatidilserine externalization”. The same molecule yielded a Ki in [10] of 108 ± 10 nM.

Values taken from publication PMC4884960, “Long lasting MDM2/Translocator protein modulator: a new strategy for irreversible apoptosis of human glioblastoma cells” (Oncotarget, 2016).
